{
  "source": "patent US6852673B2",
  "about": "“Herbicidal pyridine compounds” (BASF Aktiengesellschaft, priority 1998, dated 2005)",
  "format_in_all_cases": "in vivo",
  "key": {"[1]": {"system": "Digitaria sanguinalis (DIGSA)", "experiment": "Pre-emergence herbicidal evaluation, large crabgrass", "how_it_was_run": "(§1)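 Visual injury ratings are taken 2 to 4 weeks after treatment. Before that, seeds are planted in soil-filled pots and sprayed at once with the compound in aqueous acetone, dosed at about 0.0125 to 0.4 kg per hectare, and the pots are grown on greenhouse benches.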"}, "[2]": {"system": "Matricaria inodora (MATIN)", "experiment": "Pre-emergence herbicidal evaluation, mayweed", "how_it_was_run": "as §1"}, "Setaria viridis (SETVI)": {"system": "Setaria viridis (SETVI)", "experiment": "Post-emergence herbicidal evaluation, green foxtail", "details": "for SETVI rating: rated 2 to 4 weeks after treatment; for grass control such as Setaria virides: in barley at crop selective doses", "experimental": "(§2) [table] [table] […] These acetone solutions are diluted with water and the resulting formulations applied at dosage levels equivalent of about 0.03 to 0.4 kg per hectare of test compound per pot. After spraying the plants are placed on greenhouse benches and are cared for in the usual manner, commensurate with conventional greenhouse practices. From 2 to 4 weeks after treatment, the seedling plants are examined and rated according to the rating system provided above. A rating 0 indicates growth as untreated control, a rating 9 indicates death."}, "Stellaria media (STEME)": {"system": "Stellaria media (STEME)", "experiment": "Post-emergence herbicidal evaluation, chickweed", "details": "rated 2 to 4 weeks after treatment", "experimental": "as §2"}, "[3]": {"system": "Ipomoea hederacea (IPOHE)", "experiment": "Pre-emergence herbicidal evaluation, morning glory", "how_it_was_run": "as §1"}, "Galium aparine (GALAP)": {"system": "Galium aparine (GALAP)", "experiment": "Post-emergence herbicidal evaluation, cleaver", "details": "rated 2 to 4 weeks after treatment", "experimental": "as §2"}, "[4]": {"system": "Abutilon theophrasti (ABUTH)", "experiment": "Pre-emergence herbicidal evaluation, velvetleaf", "how_it_was_run": "as §1"}, "[5]": {"system": "Cassia obtusifolia (CASOB)", "experiment": "Post-emergence herbicidal evaluation, sicklepod", "details": "rated 2 to 4 weeks after treatment", "experimental": "as §2"}, "weeds": {"system": "weeds", "experiment": "Post-emergence herbicidal evaluation, overall weed control", "details": "in barley at crop selective doses", "experimental": "as §2"}, "[6]": {"system": "Ambrosia artemiisifolia (AMBEL)", "experiment": "Pre-emergence herbicidal evaluation, ragweed", "from_the_text": "(§3) The pre-emergence herbicidal activity of the compounds of the present invention is exemplified by the following test in which the seeds of a variety of monocotyledonous and dicotyledonous plants are seperately mixed with potting soil and planted on top of approximately one inch of soil in separate pots. After planting, the pots are sprayed with the selected aqueous acetone solution containing test compound in sufficient quantity to provide the equivalent of about 0.0125 to 0.4 kg per hectare of test compound per pot. The treated pots are then placed on greenhouse benches, watered and cared for in accordance with conventional greenhouse procedures. From 2 to 4 weeks after treatment, the tests are terminated and each pot is examined and rated according to the rating system set forth below."}, "[7]": {"system": "Cassia obtusifolia (CASOB)", "experiment": "Pre-emergence herbicidal evaluation, sicklepod", "details": "dose 0.4 kg/ha", "from_the_text": "as §3"}},
  "data": [
    {"smiles": "Cc1cc(OCC(F)(F)C(F)F)nc(Oc2cc(C(F)(F)F)nn2C)c1", "note": "[Example 6]", "values": [
      {"measurement": "DIGSA rating", "setting": "[1]; dose 0.013 kg/ha", "result": "1 (1 - Trace effect)"},
      {"measurement": "DIGSA rating", "setting": "[1]; dose 0.025 kg/ha", "result": "2 (2 - Slight effect)"},
      {"measurement": "DIGSA rating", "setting": "[1]; dose 0.1 kg/ha", "result": "9 (9 - Complete kill)"},
      {"measurement": "DIGSA rating", "setting": "[1]; dose 0.4 kg/ha", "result": "9 (9 - Complete kill)"},
      {"measurement": "MATIN rating", "setting": "[2]; dose 0.1 kg/ha", "result": "9 (9 - Complete kill)"},
      {"measurement": "MATIN rating", "setting": "[2]; dose 0.4 kg/ha", "result": "9 (9 - Complete kill)"},
      {"measurement": "SETVI rating", "setting": "Setaria viridis (SETVI); dose 0.1 kg/ha", "result": "3 (3 - Moderate effect)"},
      {"measurement": "SETVI rating", "setting": "Setaria viridis (SETVI); dose 0.25 kg/ha", "result": "2 (2 - Slight effect)"},
      {"measurement": "SETVI rating", "setting": "Setaria viridis (SETVI); dose 0.4 kg/ha", "result": "6 (6 - Herbicidal effect)"},
      {"measurement": "grass control such as Setaria virides", "setting": "Setaria viridis (SETVI)", "result": "effective"},
      {"measurement": "STEME rating", "setting": "Stellaria media (STEME); dose 0.1 kg/ha", "result": "2 (2 - Slight effect)"},
      {"measurement": "STEME rating", "setting": "Stellaria media (STEME); dose 0.25 kg/ha", "result": "2 (2 - Slight effect)"},
      {"measurement": "STEME rating", "setting": "Stellaria media (STEME); dose 0.4 kg/ha", "result": "3 (3 - Moderate effect)"},
      {"measurement": "IPOHE rating", "setting": "[3]; dose 0.013 kg/ha", "result": "0 (0 - No effect)"},
      {"measurement": "IPOHE rating", "setting": "[3]; dose 0.025 kg/ha", "result": "1 (1 - Trace effect)"},
      {"measurement": "IPOHE rating", "setting": "[3]; dose 0.1 kg/ha", "result": "2 (2 - Slight effect)"},
      {"measurement": "IPOHE rating", "setting": "[3]; dose 0.4 kg/ha", "result": "8 (8 - Approaching complete kill)"},
      {"measurement": "GALAP rating", "setting": "Galium aparine (GALAP); dose 0.1 kg/ha", "result": "6 (6 - Herbicidal effect)"},
      {"measurement": "GALAP rating", "setting": "Galium aparine (GALAP); dose 0.25 kg/ha", "result": "3 (3 - Moderate effect)"},
      {"measurement": "GALAP rating", "setting": "Galium aparine (GALAP); dose 0.4 kg/ha", "result": "7 (7 - Good herbicidal effect)"},
      {"measurement": "ABUTH rating", "setting": "[4]; dose 0.013 kg/ha", "result": "1 (1 - Trace effect)"},
      {"measurement": "ABUTH rating", "setting": "[4]; dose 0.025 kg/ha", "result": "2 (2 - Slight effect)"},
      {"measurement": "ABUTH rating", "setting": "[4]; dose 0.1 kg/ha", "result": "3 (3 - Moderate effect)"},
      {"measurement": "ABUTH rating", "setting": "[4]; dose 0.4 kg/ha", "result": "9 (9 - Complete kill)"},
      {"measurement": "CASOB rating", "setting": "[5]; dose 0.25 kg/ha", "result": "4 (4 - Injury)"},
      {"measurement": "CASOB rating", "setting": "[5]; dose 0.4 kg/ha", "result": "6 (6 - Herbicidal effect)"},
      {"measurement": "broad-leaved weed control", "setting": "weeds", "result": "effective"},
      {"measurement": "AMBEL rating", "setting": "[6]; dose 0.013 kg/ha", "result": "1 (1 - Trace effect)"},
      {"measurement": "AMBEL rating", "setting": "[6]; dose 0.025 kg/ha", "result": "1 (1 - Trace effect)"},
      {"measurement": "AMBEL rating", "setting": "[6]; dose 0.1 kg/ha", "result": "9 (9 - Complete kill)"},
      {"measurement": "AMBEL rating", "setting": "[6]; dose 0.4 kg/ha", "result": "9 (9 - Complete kill)"},
      {"measurement": "CASOB rating", "setting": "[7]", "result": "9 (9 - Complete kill)"}
    ]},
    {"smiles": "Cc1cc(OCC(F)(F)C(F)(F)C(F)(F)C(F)F)nc(Oc2cc(C(F)(F)F)nn2C)c1", "note": "[Example 8]", "values": [
      {"measurement": "DIGSA rating", "setting": "[1]; dose 0.013 kg/ha", "result": "1 (1 - Trace effect)"},
      {"measurement": "DIGSA rating", "setting": "[1]; dose 0.025 kg/ha", "result": "2 (2 - Slight effect)"},
      {"measurement": "DIGSA rating", "setting": "[1]; dose 0.1 kg/ha", "result": "9 (9 - Complete kill)"},
      {"measurement": "DIGSA rating", "setting": "[1]; dose 0.4 kg/ha", "result": "9 (9 - Complete kill)"},
      {"measurement": "MATIN rating", "setting": "[2]; dose 0.013 kg/ha", "result": "8 (8 - Approaching complete kill)"},
      {"measurement": "MATIN rating", "setting": "[2]; dose 0.025 kg/ha", "result": "8 (8 - Approaching complete kill)"},
      {"measurement": "MATIN rating", "setting": "[2]; dose 0.1 kg/ha", "result": "9 (9 - Complete kill)"},
      {"measurement": "MATIN rating", "setting": "[2]; dose 0.4 kg/ha", "result": "9 (9 - Complete kill)"},
      {"measurement": "SETVI rating", "setting": "Setaria viridis (SETVI); dose 0.03 kg/ha", "result": "3 (3 - Moderate effect)"},
      {"measurement": "SETVI rating", "setting": "Setaria viridis (SETVI); dose 0.1 kg/ha", "result": "6 (6 - Herbicidal effect)"},
      {"measurement": "SETVI rating", "setting": "Setaria viridis (SETVI); dose 0.4 kg/ha", "result": "8 (8 - Approaching complete kill)"},
      {"measurement": "grass control such as Setaria virides", "setting": "Setaria viridis (SETVI)", "result": "effective"},
      {"measurement": "STEME rating", "setting": "Stellaria media (STEME); dose 0.03 kg/ha", "result": "3 (3 - Moderate effect)"},
      {"measurement": "STEME rating", "setting": "Stellaria media (STEME); dose 0.1 kg/ha", "result": "5 (5 - Definite injury)"},
      {"measurement": "STEME rating", "setting": "Stellaria media (STEME); dose 0.4 kg/ha", "result": "8 (8 - Approaching complete kill)"},
      {"measurement": "IPOHE rating", "setting": "[3]; dose 0.013 kg/ha", "result": "2 (2 - Slight effect)"},
      {"measurement": "IPOHE rating", "setting": "[3]; dose 0.025 kg/ha", "result": "2 (2 - Slight effect)"},
      {"measurement": "IPOHE rating", "setting": "[3]; dose 0.1 kg/ha", "result": "9 (9 - Complete kill)"},
      {"measurement": "IPOHE rating", "setting": "[3]; dose 0.4 kg/ha", "result": "9 (9 - Complete kill)"},
      {"measurement": "GALAP rating", "setting": "Galium aparine (GALAP); dose 0.03 kg/ha", "result": "5 (5 - Definite injury)"},
      {"measurement": "GALAP rating", "setting": "Galium aparine (GALAP); dose 0.1 kg/ha", "result": "7 (7 - Good herbicidal effect)"},
      {"measurement": "GALAP rating", "setting": "Galium aparine (GALAP); dose 0.4 kg/ha", "result": "8 (8 - Approaching complete kill)"},
      {"measurement": "ABUTH rating", "setting": "[4]; dose 0.013 kg/ha", "result": "0 (0 - No effect)"},
      {"measurement": "ABUTH rating", "setting": "[4]; dose 0.025 kg/ha", "result": "1 (1 - Trace effect)"},
      {"measurement": "ABUTH rating", "setting": "[4]; dose 0.1 kg/ha", "result": "7 (7 - Good herbicidal effect)"},
      {"measurement": "ABUTH rating", "setting": "[4]; dose 0.4 kg/ha", "result": "9 (9 - Complete kill)"},
      {"measurement": "CASOB rating", "setting": "[5]; dose 0.03 kg/ha", "result": "2 (2 - Slight effect)"},
      {"measurement": "CASOB rating", "setting": "[5]; dose 0.1 kg/ha", "result": "7 (7 - Good herbicidal effect)"},
      {"measurement": "CASOB rating", "setting": "[5]; dose 0.4 kg/ha", "result": "7 (7 - Good herbicidal effect)"},
      {"measurement": "broad-leaved weed control", "setting": "weeds", "result": "effective"},
      {"measurement": "AMBEL rating", "setting": "[6]; dose 0.013 kg/ha", "result": "5 (5 - Definite injury)"},
      {"measurement": "AMBEL rating", "setting": "[6]; dose 0.025 kg/ha", "result": "7 (7 - Good herbicidal effect)"},
      {"measurement": "AMBEL rating", "setting": "[6]; dose 0.1 kg/ha", "result": "8 (8 - Approaching complete kill)"},
      {"measurement": "AMBEL rating", "setting": "[6]; dose 0.4 kg/ha", "result": "8 (8 - Approaching complete kill)"}
    ]}
  ]
}
